Source: PubChem BioAssay AID248 (DTP/NCI, 2004)
Values joined by “and” are separate entries in the source; they are usually repeats but may differ in a detail not shown here. Identical values can stand only once. Inconclusive results and toxic doses are left out. Cut-off read from the data, not from the text of the source: active = T/C of 150% or more; inactive = T/C below 125%.

Tested on: L1210 leukemia ip in BDF1 mice, survival T/C
Experiment: NCI In Vivo Anticancer Drug Screen. Data for tumor model L1210 Leukemia (intraperitoneal) in B6D2F1 (BDF1) mice
Settings: endpoint: mean survival time, higher = longer survival
How it was run: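 Tumor cells were implanted, animals were treated, and survival was followed. The result divides the treated measurement by the vehicle-control measurement.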

[1] = dose: 25.0 mg/kg/injection, schedule: Q01DX009 (ip), vehicle: Klucel (hydroxypropylcellulose) (HPC)
[2] = dose: 50.0 mg/kg/injection, schedule: Q01DX009 (ip), vehicle: Klucel (hydroxypropylcellulose) (HPC)
[3] = dose: 100.0 mg/kg/injection, schedule: Q04DX003 (ip), vehicle: Klucel (hydroxypropylcellulose) (HPC)
[4] = dose: 50.0 mg/kg/injection, schedule: Q01DX001 (ip), vehicle: saline
[5] = dose: 100.0 mg/kg/injection, schedule: Q01DX001 (ip), vehicle: saline
[6] = dose: 400.0 mg/kg/injection, schedule: Q01DX001 (ip), vehicle: saline
[7] = dose: 100.0 mg/kg/injection, schedule: Q04DX003 (ip), vehicle: saline
[8] = dose: 200.0 mg/kg/injection, schedule: Q04DX003 (ip), vehicle: saline
[9] = dose: 400.0 mg/kg/injection, schedule: Q04DX003 (ip), vehicle: saline
[10] = dose: 100.0 mg/kg/injection, schedule: Q01DX001 (ip), vehicle: carboxymethylcellulose (CMC)
[11] = dose: 200.0 mg/kg/injection, schedule: Q01DX001 (ip), vehicle: carboxymethylcellulose (CMC)
[12] = dose: 400.0 mg/kg/injection, schedule: Q01DX001 (ip), vehicle: carboxymethylcellulose (CMC)

Measured: T/C

CCCc1c2cc(OC)c(OC)cc2cc2c3cc(OC)c(OC)cc3cc[n+]12 (tested in a mixture with another compound)
inactive: dose: 12.5 mg/kg/injection, schedule: Q01DX009 (ip), vehicle: Klucel (hydroxypropylcellulose) (HPC) 109 % of control | [1] 107 % of control | [2] 106 % of control and 123 % of control | [3] 100 % of control | dose: 200.0 mg/kg/injection, schedule: Q04DX003 (ip), vehicle: Klucel (hydroxypropylcellulose) (HPC) 110 % of control

O=Nc1ccc(/C=C/C(=O)O)cc1
inactive: [4] 102 % of control | [5] 105 % of control | dose: 200.0 mg/kg/injection, schedule: Q01DX001 (ip), vehicle: saline 100 % of control | [6] 113 % of control

COc1ccc(NC(=O)NCc2cccc(Cl)c2)cc1
inactive: dose: 50.0 mg/kg/injection, schedule: Q04DX002 (ip), vehicle: Klucel (hydroxypropylcellulose) (HPC) 100 % of control | dose: 100.0 mg/kg/injection, schedule: Q04DX002 (ip), vehicle: Klucel (hydroxypropylcellulose) (HPC) 103 % of control and 107 % of control | dose: 200.0 mg/kg/injection, schedule: Q04DX002 (ip), vehicle: Klucel (hydroxypropylcellulose) (HPC) 98 % of control | dose: 400.0 mg/kg/injection, schedule: Q04DX002 (ip), vehicle: Klucel (hydroxypropylcellulose) (HPC) 110 % of control and 92 % of control

O=C(c1ccc(Cl)cc1)c1cccc[n+]1Cc1ccccc1
inactive: dose: 12.5 mg/kg/injection, schedule: Q04DX003 (ip), vehicle: Klucel (hydroxypropylcellulose) (HPC) 102 % of control | [1] 103 % of control | dose: 25.0 mg/kg/injection, schedule: Q04DX003 (ip), vehicle: Klucel (hydroxypropylcellulose) (HPC) 101 % of control | [2] 103 % of control | dose: 50.0 mg/kg/injection, schedule: Q04DX003 (ip), vehicle: Klucel (hydroxypropylcellulose) (HPC) 94 % of control | dose: 100.0 mg/kg/injection, schedule: Q01DX009 (ip), vehicle: Klucel (hydroxypropylcellulose) (HPC) 119 % of control | [3] 97 % of control

Cc1cccc(C)c1NC(=O)Oc1cccc2ccccc12
inactive: dose: 100.0 mg/kg/injection, schedule: Q01DX009 (ip), vehicle: saline 97 % of control | [7] 93 % of control | dose: 200.0 mg/kg/injection, schedule: Q01DX009 (ip), vehicle: saline 95 % of control | [8] 98 % of control | dose: 400.0 mg/kg/injection, schedule: Q01DX009 (ip), vehicle: saline 103 % of control | [9] 100 % of control

O=C(c1cccc([N+](=O)[O-])c1)C1CC1
inactive: dose: 25.0 mg/kg/injection, schedule: Q01DX001 (ip), vehicle: Klucel (hydroxypropylcellulose) (HPC) 97 % of control | dose: 50.0 mg/kg/injection, schedule: Q01DX001 (ip), vehicle: Klucel (hydroxypropylcellulose) (HPC) 101 % of control | dose: 100.0 mg/kg/injection, schedule: Q01DX001 (ip), vehicle: Klucel (hydroxypropylcellulose) (HPC) 95 % of control

Cc1nc(N)nn1C
inactive: dose: 100.0 mg/kg/injection, schedule: Q04DX002 (ip), vehicle: saline 97 % of control | dose: 200.0 mg/kg/injection, schedule: Q04DX002 (ip), vehicle: saline 110 % of control | dose: 400.0 mg/kg/injection, schedule: Q04DX002 (ip), vehicle: saline 100 % of control

CC1CCC(=O)OCCCC(=O)C1 (stereo not given)
inactive: [5] 93 % of control | [6] 95 % of control

CN(C)Cc1ccc2ccccc2c1C(O)(c1ccccc1)c1ccccc1
inactive: [10] 96 % of control | [11] 98 % of control | [12] 96 % of control

CN(C)C1CCC(Nc2nc(Nc3cc(Cl)cc(Cl)c3)nc3ccccc23)CC1 (stereo not given)
inactive: dose: 100.0 mg/kg/injection, schedule: Q01DX001 (ip), vehicle: saline with Tween-80 95 % of control

Clc1c(Cl)c(Cl)c2n[nH]nc2c1Cl
inactive: dose: 75.0 mg/kg/injection, schedule: Q01DX001 (ip), vehicle: saline 96 % of control

Nc1c(Br)c(Cl)cc2c1-c1ccc(Cl)cc1C2S (stereo not given)
inactive: [10] 104 % of control | [11] 95 % of control | [12] 90 % of control

c1ccc(NCc2csc3ccccc23)cc1
inactive: [10] 98 % of control | [11] 88 % of control | [12] 98 % of control

CCCCCCCCCCCCCC(C)NCc1ccccc1 (stereo not given)
inactive: [4] 97 % of control | [5] 88 % of control

CC1CN(c2ccccc2)NC1=O (stereo not given)
inactive: [7] 97 % of control | [8] 95 % of control | [9] 97 % of control
